Common to all, as to format: biochemical
Experiment [1] relates to OleT. As to the kind of experiment: Decarboxylation of FAs C22 to C4 employing the FDH-CamAB-OleT redox-cascade. The note with it: 25 °C, 24 h, 10 mM substrate. As to the method:
Enzymatic reactions (1 mL scale) were quenched by addition of 100 μL 5 N Extraction of substrate and products was performed with 500 μL EtOAc containing 0.1% 1-decanol as internal standard. The organic phase was dried over anhydrous Na2SO4. Derivatization of carboxylic acids (fatty acids and hydroxy acids) to the corresponding methyl esters was achieved by mixing the organic phase with MeOH (2.5:1.5 v/v) followed by supplementation of 5 to 15 μL of 2 M TMSCHN2 (trimethylsilyldiazomethane in diethyl ether). The mixture was incubated for 30 min, 25° C. and 750 rpm before injection into GC-FID or GC-MS, Extraction and derivatization of products and substrates from conversion of short chain FAs ([…]) was performed using the same protocol but all steps were performed on ice to prevent undesired loss of volatile products.
Products from FA substrates with chain lengths ranging from C22 to C10 were separated on a HP5 column (Programm) and detected by GC-FID or GC-MS. Extracted products from conversion of nonanoic acid (I-octene as product) were separated on a DB1702 column (Programm) and detected by GC-FID. Authentic standards of substrates and terminal olefins were treated as described above and were used as references for identification and preparation of calibration curves. Detection of volatile short chain terminal olefins (1-butene/1-propene [ongoing] to 1-heptene) was accomplished by manual injection from vial headspaces into GC-MS, in order to prevent loss of products, the vials containing the reaction mixtures were sealed with a PTFE septum. After conversion the closed vial was heated for 10 min at 80° C., together with a 10 ml syringe (TYPE). From the headspace 2 to 9 μl volumes were injected splitless into a GC-MS chromatograph and analytes were separated on a HP5 column (Programm). Calibration curves for 1-pentene, 1-hexene and 1-heptene were prepared in the same way at 4° C. and using 5% DMF as cosolvent.
The substrate scope of OleT was further investigated by varying the FA chain length from C3 to C22. […] For the first time, short EAs could be decarboxylated to the corresponding olefins, covering the whole spectrum from C11 down to C4. […] Due to the high volatility of short chain olefins, product work up was done at 4° C. […] (2.53 mM product from 5 mM lauric acid). Head-space analysis by GC-MS from reactions with short chain FAs (C8-C5) confirmed the formation of the respective α-olefins, allowing the first biotechnological access to 1-heptene, 1-hexene and 1-pentene and 1-butene with OleT.
Conversion of heptanoic acid was carried out as described in Example 4 using the OleTCamAB-FDH reaction cascade.
Calibration curves for 1-hexene were prepared accordingly ranging from 0.05 to 2 mM. Due to a strong overlap of […] with the peak areas of CO2 and EtOH (FIG. 1, peaks a, b and c) the ion extraction mode of the GC-MS to generate reliable calibration curves was used. Neither CO2 nor EtOH interfered with the product peak area. This can be seen comparing FIGS. 1 and 5 which allow reliable and linear quantification of 1-hexene (FIG. 6) using manual headspace GC-MS injection.
Manual headspace injection into GC-MS was successfully performed for all substrates with chain lengths of C11 to C6. Conversion of 10 mM heptanoic acid allowed reliable formation of up to 1.3 mM 1-hexene without further optimization of the reaction conditions.

Experiment [2] has as its system OleT. As to the kind of experiment: Trapping, derivatization (Br2/DCM impinger) and quantification of 1-butene and 1-propene formed by the OleT-CamAB-FDH cascade. Particulars: 10 mM substrate, 10 ml scale. As to the method:
FIG. 7 is a picture of a novel reaction set up for trapping volatile α-olefins, such as 1-propene and 1-butene. A small impinger containing 10 ml of a 20 mM Br2/DCM solution was placed on top of the flask serving as sole gas outlet and trap for α-olefin products. The functionality of this system was successfully confirmed using an analytical standard of 1-heptene. The concept for derivatization and trapping of volatile α-olefins is shown in Scheme 2.
Production of 1-propene and 1-butene was initially confirmed using manual headspace GC-MS injection. Since the quantification of 1-propene and 1-butene using analytical standards was not feasible, a novel trapping/derivatization system for highly volatile short-chain α-olefins derived from biocatalytic reactions was designed. […]
The obtained products were analyzed by GC-FID and GC-MS using analytical standards of 1,2-dibromobutane and 1,2-dibromopropane. Due to the (visible) gas exhaust (CO2 production by OleT and FDH) and strong evaporation of DCM (˜70% volume lost after 24 h), the residual volume in the impinger was determined to allow reliable product quantification. Calibration curves for 1,2-dibromobutane and 1,2-dibromopropane were prepared to allow quantification of produced 1-propene and 1-butene (not shown). […]

For experiment [3], the system named is OleT. In words: Inhibitory effect of gluconic acid on OleT productivity. The note with it: 10 mM gluconic acid. The method, then: After 24 h reaction time, product concentrations of 1.16 mM (0.27 g L-1) 1-heptadecene and 1 mM (0.21 g L-1) 1-pentadecene were obtained but could not be further enhanced. […] Compared to a previously published whole cell reaction system, this FDH-driven system allows 6 times higher product titer and a 21 times higher volumetric productivity with 42.5 mg L-1 h-1 of α-olefin after 8 h reaction time vs: 98 mg L-1 in 48 h) (Table 2).

The structures appear in SMILES notation.

For the molecule `CCCC(=O)O` [C4, butyric acid], in the experiment on OleT [1], the Conversion is on record as 5% and the α-Olefin turned out to be 504 µM. For the same molecule, in the experiment with OleT [2], the “α-olefin formed (trapped as 1,2-dibromoalkane)” value is 504 µM.

In the experiment with OleT [1], `CCCCC(=O)O` [C5, valeric acid] gave a Conversion of 8.3% and a α-Olefin of 834 µM. Also, the “α-olefin formed (trapped as 1,2-dibromoalkane)” value in the experiment on OleT [2] amounted to 834 µM.

On to `O=C(O)[C@H](O)[C@@H](O)[C@H](O)[C@H](O)CO` [gluconic acid], for which the “reduction of OleT productivity” value in the experiment on OleT [3] was found to be 28%.

The record behind these values is patent publication US9885060B2, “Alkene production” (Evonik Degussa GmbH, priority 2015, dated 2018).
